Experimental findings from patent US4698352A, “4-oxo-1,4-dihydronicotinic acid derivatives, salts thereof, and antibacterial agents containing the same” (Toyama Chemical Co., Ltd., priority 1982, dated 1987) are described below.

Values after ≈ are worked out from the molar mass of the structure shown. Where two headings read alike, the source gives them in different places. Where only a bound is given, the exact number is not on record here.

Holding throughout (test): Antibacterial activity (MIC), agar dilution
Type in all cases: cell-based
(In general: In agar dilution the substance is mixed into plates at graded concentrations.)

One assay concerns Aci. antitratus A-6. As to conditions: 20 h. From the text:
(§1) The amount of bacteria inoculated was 10^4 cells per plate (10^6 cells per ml).

Another assay relates to E. coli NIHJ JC-2. The following applies: Escherichia coli, NIHJJC2, 20 h, E. coli NIHJ JC-2; 10^6 cells per ml; 37° C., 20 hours; read-out: MIC.
Description: as §1

The subject of a further assay is E. coli TK-111. The following applies: Escherichia coli, TK111, 20 h, E. coli TK-111; 10^6 cells per ml; 37° C., 20 hours; read-out: MIC.
Description: as §1

A further assay has as its system Ent. cloacae IID977. As to conditions: Enterobacter cloacae, IID977, 20 h.
Description: as §1

In the next assay the test system is Kl. pneumoniae Y-41. As to conditions: Klebsiella pneumoniae, Y41, 10^6 cells per ml, 37° C., 20 hours, read-out: MIC.
Description: as §1

Another assay has as its system Kl. pneumoniae Y-50. The following applies: Klebsiella pneumoniae, Y50, 20 h, 10^6 cells per ml, 37° C., read-out: MIC.
Description: as §1

For the next assay, the system named is Pro. mirabilis T-111. The following applies: Proteus mirabilis, 37° C.
Description: as §1

Another assay has as its system Pro. morganii T-216. As to conditions: Morganella morganii, 37° C.
Description: as §1

A further assay deals with Pro. vulgaris GN3027. The following applies: Proteus vulgaris, GN3027, 20 h, Pro. vulgaris GN3027; 10^6 cells per ml; 37° C., 20 hours; read-out: MIC.
Description: as §1

For another assay, the system named is Ps. aeruginosa IFO3445. As to conditions: Pseudomonas aeruginosa.
Description: as §1

A further assay concerns Ps. aeruginosa S-68. As to conditions: Pseudomonas aeruginosa.
Description: as §1

For a further assay, the system named is St. aureus FDA209P. The following applies: Staphylococcus aureus, FDA209P, 20 h.
Description: as §1

The subject of another assay is E. coli TK-3*. As to conditions: Escherichia coli, 20 h.
Description: as §1
(§2) * Penicillinase-producing bacteria

For the next assay, the system named is Kl. pneumoniae Y-4*. As to conditions: Klebsiella pneumoniae, 20 h, Kl. pneumoniae Y-4, penicillinase-producing; 10^6 cells per ml; read-out: MIC.
Description: as §1, §2

For a further assay, the system named is Ps. aeruginosa GN3379*. The following applies: Pseudomonas aeruginosa, Ps. aeruginosa GN3379, penicillinase-producing, 10^6 cells per ml.
Description: as §1, §2

The next assay relates to St. aureus F-137*. The following applies: Staphylococcus aureus, 20 h.
Description: as §1, §2

Another assay deals with E. coli GN5482**. The following applies: Escherichia coli, 20 h; E. coli GN5482, cephalospolinase-producing; 10^6 cells per ml; read-out: MIC.
Description: as §1
(§3) ** Cephalospolinase-producing bacteria

The test system of another assay is Pro. vulgaris GN76**. As to conditions: Proteus vulgaris, 20 h; Pro. vulgaris GN76, cephalospolinase-producing; 10^6 cells per ml; read-out: MIC.
Description: as §1, §3

The test system of a further assay is Ps. aeruginosa GN918**. The following applies: Pseudomonas aeruginosa, Ps. aeruginosa GN918, cephalospolinase-producing, 10^6 cells per ml.
Description: as §1, §3

Where [1] appears, read: Aci. antitratus A-6, 10^6 cells per ml, 37° C., 20 hours, read-out: MIC.
[2] abbreviates: St. aureus FDA209P, 10^6 cells per ml, 37° C., 20 hours, read-out: MIC.
Where [3] appears, read: St. aureus F-137, penicillinase-producing, 10^6 cells per ml, read-out: MIC.
[4] abbreviates: T216, 10^6 cells per ml, 20 hours, read-out: MIC.
Setting [5] is: E. coli TK-3, penicillinase-producing, 10^6 cells per ml, read-out: MIC.
Setting [6] is: Ent. cloacae IID977, 10^6 cells per ml, 37° C., 20 hours, read-out: MIC.

What is called MIC is the smallest concentration in the dilution series that meets the test's criterion for growth inhibition. Take `Cc1cc(O)ccc1-n1cc(C(=O)O)c(=O)cc1C1=CCCC1`: the MIC was 0.78 µg/mL (≈ 2.51 µM) in the assay with Aci. antitratus A-6 (setting [1]); 0.78 µg/mL (≈ 2.51 µM) with E. coli NIHJ JC-2; 0.2 µg/mL (≈ 0.642 µM) with E. coli TK-111; 1.56 µg/mL (≈ 5.01 µM) in the assay with Ent. cloacae IID977; 1.56 µg/mL (≈ 5.01 µM) in the assay with Kl. pneumoniae Y-41; 0.39 µg/mL (≈ 1.25 µM) in the assay with Kl. pneumoniae Y-50. Besides, the MIC worked out at 3.13 µg/mL (≈ 10.1 µM) in the assay on Pro. mirabilis T-111 (T111, 10^6 cells per ml, 20 hours, read-out: MIC); 1.56 µg/mL (≈ 5.01 µM) with Pro. morganii T-216 (T216, 20 h, 10^6 cells per ml); 0.1 µg/mL (≈ 0.321 µM) with Pro. vulgaris GN3027; 6.25 µg/mL (≈ 20.1 µM) against Ps. aeruginosa IFO3445 (IFO3445, 20 h); 6.25 µg/mL (≈ 20.1 µM) in the assay on Ps. aeruginosa S-68 (S68, 20 h); 0.78 µg/mL (≈ 2.51 µM) in the assay on St. aureus FDA209P (setting [2]). Besides, the MIC against E. coli TK-3* is 1.56 µg/mL (≈ 5.01 µM); with Kl. pneumoniae Y-4* it was 6.25 µg/mL (≈ 20.1 µM); in the assay on Ps. aeruginosa GN3379* (20 h, read-out: MIC), 25 µg/mL (≈ 80.3 µM); in the assay with St. aureus F-137* (setting [3]) it was 0.78 µg/mL (≈ 2.51 µM); with E. coli GN5482**, 0.1 µg/mL (≈ 0.321 µM); with Pro. vulgaris GN76** it was 0.78 µg/mL (≈ 2.51 µM). For the same compound, in the assay with Ps. aeruginosa GN918** (20 h, read-out: MIC), the MIC turned out to be 3.13 µg/mL (≈ 10.1 µM).
`CC(=O)Oc1ccc(-n2cc(C(=O)O)c(=O)cc2-c2ccc(N(C)C)cc2)cc1`: the MIC was 0.2 µg/mL (≈ 0.51 µM) in the assay on Aci. antitratus A-6 (setting [1]); 0.2 µg/mL (≈ 0.51 µM) with E. coli NIHJ JC-2; at most 0.05 µg/mL in the assay with E. coli TK-111; 1.56 µg/mL (≈ 3.98 µM) in the assay with Ent. cloacae IID977; 1.56 µg/mL (≈ 3.98 µM) in the assay with Kl. pneumoniae Y-41; 0.39 µg/mL (≈ 0.994 µM) in the assay on Kl. pneumoniae Y-50. For the same compound, the MIC was found to be 3.13 µg/mL (≈ 7.98 µM) against Pro. mirabilis T-111 (T111, 20 h, 10^6 cells per ml); 0.78 µg/mL (≈ 1.99 µM) in the assay on Pro. morganii T-216 (setting [4]); 0.1 µg/mL (≈ 0.255 µM) in the assay with Pro. vulgaris GN3027; 3.13 µg/mL (≈ 7.98 µM) in the assay on Ps. aeruginosa IFO3445 (IFO3445, 20 h); 3.13 µg/mL (≈ 7.98 µM) against Ps. aeruginosa S-68 (S68, 20 h); 0.1 µg/mL (≈ 0.255 µM) with St. aureus FDA209P (setting [2]). For the same compound, the MIC in the assay with E. coli TK-3* (setting [5]) was 0.39 µg/mL (≈ 0.994 µM); in the assay on Kl. pneumoniae Y-4*, 3.13 µg/mL (≈ 7.98 µM); with Ps. aeruginosa GN3379* (GN3379, 20 h), 3.13 µg/mL (≈ 7.98 µM); in the assay with St. aureus F-137* (setting [3]), 0.1 µg/mL (≈ 0.255 µM); with E. coli GN5482**, at most 0.05 µg/mL; with Pro. vulgaris GN76**, 0.39 µg/mL (≈ 0.994 µM). Besides, in the assay with Ps. aeruginosa GN918** (20 h, read-out: MIC), the MIC is 0.78 µg/mL (≈ 1.99 µM).
As to `O=C(O)c1cn(-c2ccc(O)cc2)c(-c2ccc(-c3ccccn3)s2)cc1=O`, the MIC in the assay with Aci. antitratus A-6 (setting [1]) is 0.78 µg/mL (≈ 2 µM); in the assay on E. coli NIHJ JC-2, 0.39 µg/mL (≈ 0.999 µM); in the assay on E. coli TK-111, at most 0.05 µg/mL; with Ent. cloacae IID977 (setting [6]), 1.56 µg/mL (≈ 4 µM); with Kl. pneumoniae Y-41, 3.13 µg/mL (≈ 8.02 µM); in the assay on Kl. pneumoniae Y-50, 0.78 µg/mL (≈ 2 µM). Moreover, the minimum inhibitory concentration (MIC) came out at 3.13 µg/mL (≈ 8.02 µM) in the assay on Pro. mirabilis T-111 (T111, 20 h, 10^6 cells per ml); 1.56 µg/mL (≈ 4 µM) in the assay with Pro. morganii T-216 (setting [4]); 0.1 µg/mL (≈ 0.256 µM) with Pro. vulgaris GN3027; 3.13 µg/mL (≈ 8.02 µM) against Ps. aeruginosa IFO3445 (IFO3445, 20 h); 3.13 µg/mL (≈ 8.02 µM) in the assay with Ps. aeruginosa S-68 (S68, 20 h); 0.2 µg/mL (≈ 0.512 µM) in the assay with St. aureus FDA209P (setting [2]). In addition, the MIC with E. coli TK-3* (setting [5]) was 0.78 µg/mL (≈ 2 µM); in the assay on Kl. pneumoniae Y-4*, 3.13 µg/mL (≈ 8.02 µM); in the assay on Ps. aeruginosa GN3379* (GN3379, 20 h), 3.13 µg/mL (≈ 8.02 µM); in the assay on St. aureus F-137* (setting [3]) it was 0.2 µg/mL (≈ 0.512 µM); in the assay with E. coli GN5482**, at most 0.05 µg/mL; with Pro. vulgaris GN76**, 0.78 µg/mL (≈ 2 µM). Further, the MIC in the assay with Ps. aeruginosa GN918** (20 h, read-out: MIC) amounted to 1.56 µg/mL (≈ 4 µM).
With `Nc1ccc(-c2cc(=O)c(C(=O)O)cn2-c2ccc(F)cc2)cc1`, the MIC in the assay with Aci. antitratus A-6 came out at 3.13 µg/mL (≈ 9.65 µM); with E. coli NIHJ JC-2, 0.78 µg/mL (≈ 2.41 µM); in the assay on E. coli TK-111 it was 0.39 µg/mL (≈ 1.2 µM); in the assay on Ent. cloacae IID977 (setting [6]) it was 1.56 µg/mL (≈ 4.81 µM); in the assay with Kl. pneumoniae Y-41, 3.13 µg/mL (≈ 9.65 µM); in the assay on Kl. pneumoniae Y-50, 0.39 µg/mL (≈ 1.2 µM). For the same compound, the minimum inhibitory concentration (MIC) in the assay on Pro. mirabilis T-111 (T111, 20 h, 10^6 cells per ml) worked out at 6.25 µg/mL (≈ 19.3 µM); in the assay on Pro. morganii T-216 (setting [4]), 1.56 µg/mL (≈ 4.81 µM); in the assay with Pro. vulgaris GN3027, 0.2 µg/mL (≈ 0.617 µM); with Ps. aeruginosa IFO3445 (Ps. aeruginosa IFO3445, 10^6 cells per ml, 37° C., 20 hours, read-out: MIC), 6.15 µg/mL (≈ 19 µM); in the assay on Ps. aeruginosa S-68 (S68, Ps. aeruginosa S-68, 10^6 cells per ml, 37° C., 20 hours, read-out: MIC) it was 12.5 µg/mL (≈ 38.5 µM); against St. aureus FDA209P it was 3.13 µg/mL (≈ 9.65 µM). The MIC was determined as 0.78 µg/mL (≈ 2.41 µM) with E. coli TK-3* (setting [5]); 6.25 µg/mL (≈ 19.3 µM) with Kl. pneumoniae Y-4*; 25 µg/mL (≈ 77.1 µM) in the assay on Ps. aeruginosa GN3379* (20 h, read-out: MIC); 3.13 µg/mL (≈ 9.65 µM) in the assay with St. aureus F-137*; 0.2 µg/mL (≈ 0.617 µM) in the assay with E. coli GN5482**; 0.78 µg/mL (≈ 2.41 µM) in the assay on Pro. vulgaris GN76**. Also, the MIC in the assay with Ps. aeruginosa GN918** (GN918, 20 h) is 3.13 µg/mL (≈ 9.65 µM).
